The record followed here is PubChem BioAssay (NCI).

Values joined by “and” are separate entries in the source; they are usually repeats but may differ in a detail not shown here. Equal entries are not always repeated.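 All cell lines were grown in 96-well plates and treated with compound for 48 hours. GI50 marks 50% less growth. The concentration for full growth arrest is given as TGI.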

Some test systems named below: UACC-257 melanoma; NCI-H522 lung; SW-620 colon; T-47D breast; DU-145 prostate; HCC-2998 colon; NCI-H460 lung; OVCAR-8 ovarian; A498 renal; SNB-75 CNS.
Common to all, as to assay: NCI anticancer screen, dose series, 48 h

For the molecule `COc1ccc(CCN2C(=O)C=CC2=O)cc1OC`, the TGI in the assay with UACC-257 melanoma was found to be 30.9 µM; with NCI-H522 lung it was 3.17 µM; with SW-620 colon it was 5.65 µM; with T-47D breast it was 31.9 µM; in the assay with DU-145 prostate, 31 µM; in the assay with HCC-2998 colon, 34.8 µM. Further, the TGI with NCI-H460 lung stood at 46.8 µM; in the assay with OVCAR-8 ovarian, 44.1 µM; with A498 renal, 33.1 µM; with SNB-75 CNS, 36.1 µM.

As to `CCC(C)(C)C(=O)O[C@H]1C[C@@H](C)C=C2C=C[C@H](C)[C@H](CC[C@@H]3C[C@@H](O)CC(=O)O3)[C@H]21`, the GI50 in the assay on UACC-257 melanoma was 10.8 µM; with NCI-H522 lung it was 0.826 µM; with SW-620 colon it was 3.58 µM; in the assay with T-47D breast it was 11.9 µM; in the assay with DU-145 prostate, 12.1 µM; in the assay with HCC-2998 colon, 7.89 µM. Also, the values for the GI50 in the assay on NCI-H460 lung and in the assay on A498 renal were 3.91 µM and 0.156 µM, respectively. In addition, the TGI in the assay on UACC-257 melanoma was 25 µM and > 30 µM; in the assay with NCI-H522 lung, 5.26 µM; in the assay on SW-620 colon it was 16.6 µM and > 30 µM; in the assay on T-47D breast, 28.2 µM; with DU-145 prostate, 24.6 µM; in the assay with HCC-2998 colon, 22.1 µM and > 30 µM. In addition, the TGI in the assay on NCI-H460 lung was 14.1 µM and > 30 µM; in the assay with OVCAR-8 ovarian, 18.2 µM and 20.6 µM; with SNB-75 CNS, 5.37 µM and > 30 µM.

Take `CCOc1cccc(/C=N/NC(=O)c2ccc(Nc3ccnc(C(F)(F)F)c3)cc2)c1O`: the GI50 in the assay with UACC-257 melanoma is 0.728 µM; with NCI-H522 lung, 16.9 µM; with SW-620 colon, 2.01 µM; in the assay with T-47D breast it was 0.984 µM; in the assay with DU-145 prostate, 2.46 µM; in the assay with HCC-2998 colon it was 1.49 µM. For the same molecule, the GI50 was 0.492 µM with NCI-H460 lung, 0.599 µM in the assay on OVCAR-8 ovarian, 4.65 µM in the assay on A498 renal and 3.34 µM in the assay on SNB-75 CNS. For the same molecule, the TGI in the assay with UACC-257 melanoma is > 21.1 µM; in the assay on NCI-H522 lung, > 82.8 µM; with SW-620 colon, > 100 µM; in the assay on T-47D breast, 19.4 µM; in the assay with DU-145 prostate, > 100 µM; with HCC-2998 colon it was > 20.4 µM. The TGI in the assay with NCI-H460 lung was 13.6 µM; with OVCAR-8 ovarian it was > 72.5 µM; in the assay with A498 renal, > 58 µM; in the assay with SNB-75 CNS, > 67.5 µM.

Consider `COc1cc(NS(C)(=O)=O)ccc1Nc1c2ccc(Cl)cc2nc2c(OC)cccc12`, for which the GI50 in the assay on UACC-257 melanoma was 0.698 µM; with NCI-H522 lung it was 0.222 µM; in the assay on SW-620 colon, 0.0799 µM; in the assay on T-47D breast, 0.0826 µM; with DU-145 prostate it was < 0.0143 µM; with HCC-2998 colon it was 0.826 µM. The GI50 is 0.186 µM in the assay on OVCAR-8 ovarian, 0.156 µM in the assay with A498 renal and 0.0966 µM with SNB-75 CNS. In addition, the TGI stood at 4.07 µM in the assay with UACC-257 melanoma; 2.12 µM in the assay with NCI-H522 lung; 2.17 µM in the assay with SW-620 colon; 3.37 µM in the assay on T-47D breast; 0.505 µM in the assay on DU-145 prostate; 5.23 µM in the assay with HCC-2998 colon. For the same molecule, the TGI in the assay with NCI-H460 lung came to 1.37 µM; with OVCAR-8 ovarian, 5.07 µM; in the assay with A498 renal, 2.24 µM; with SNB-75 CNS, 1.59 µM.

As to `O=[N+]([O-])c1ccc(Br)c([N+](=O)[O-])c1`, the GI50 was 1.86 µM in the assay with UACC-257 melanoma; 0.163 µM with NCI-H522 lung; 1.83 µM in the assay on SW-620 colon; 2.13 µM in the assay on T-47D breast; 1.72 µM in the assay with DU-145 prostate; 4.73 µM with HCC-2998 colon. Further, the GI50 in the assay on NCI-H460 lung is 2.56 µM; with OVCAR-8 ovarian it was 2.49 µM; in the assay with A498 renal, 14.3 µM; with SNB-75 CNS, 1.69 µM. Further, the TGI in the assay with UACC-257 melanoma was 3.37 µM; in the assay with NCI-H522 lung, 0.355 µM; in the assay with SW-620 colon, 4.13 µM; in the assay on T-47D breast, 4.94 µM; in the assay on DU-145 prostate, 3.12 µM; in the assay with HCC-2998 colon, 16.7 µM. In addition, the TGI amounted to 8.72 µM with NCI-H460 lung, 6.05 µM in the assay on OVCAR-8 ovarian, 27.7 µM with A498 renal and 4.36 µM in the assay with SNB-75 CNS.

`CC(=O)N1N=C2/C(=C/c3ccccc3)CC(C)CC2C1c1ccccc1` (stereo unspecified): the GI50 was 16.5 µM in the assay on UACC-257 melanoma; 13.8 µM with NCI-H522 lung; 15.2 µM with SW-620 colon; 10.7 µM in the assay with T-47D breast; 16.1 µM in the assay on DU-145 prostate; 8.86 µM in the assay with HCC-2998 colon. The GI50 in the assay with NCI-H460 lung was 13 µM; in the assay with OVCAR-8 ovarian, 16.1 µM; in the assay on A498 renal, 16.5 µM; in the assay on SNB-75 CNS, 15.6 µM. For the same molecule, the TGI was determined as 32.6 µM with UACC-257 melanoma; 31.7 µM in the assay with NCI-H522 lung; 33.2 µM in the assay on SW-620 colon; 34.7 µM in the assay on T-47D breast; 33.5 µM in the assay on DU-145 prostate; 21.2 µM in the assay with HCC-2998 colon. Further, the TGI was 27.8 µM with NCI-H460 lung, 50.6 µM with OVCAR-8 ovarian, 30.7 µM in the assay with A498 renal and 30.9 µM with SNB-75 CNS.

For the molecule `COc1ccc(-c2[nH]c3ccccc3c2C=C(C#N)C#N)cc1`, the GI50 in the assay on UACC-257 melanoma was > 20.6 µM; in the assay on NCI-H522 lung, 0.798 µM; in the assay on SW-620 colon, 0.435 µM; in the assay on T-47D breast, 0.481 µM; with DU-145 prostate, 0.484 µM; in the assay with HCC-2998 colon, 0.67 µM. In addition, the GI50 in the assay on NCI-H460 lung is 0.368 µM; with OVCAR-8 ovarian, 1.1 µM; with A498 renal it was 0.294 µM; in the assay on SNB-75 CNS, 0.412 µM. For the same molecule, the TGI is > 100 µM in the assay with UACC-257 melanoma; 10.3 µM with NCI-H522 lung; > 100 µM in the assay on SW-620 colon; > 100 µM in the assay on T-47D breast; > 21.7 µM in the assay on DU-145 prostate; 3.16 µM in the assay on HCC-2998 colon. The TGI with NCI-H460 lung was > 100 µM; in the assay with OVCAR-8 ovarian it was > 100 µM; in the assay on A498 renal it was 2.12 µM; in the assay with SNB-75 CNS, 20.5 µM.

`O=C1NN(c2ccc(C(=O)O)cc2)C(=O)/C1=C\c1ccc([N+](=O)[O-])o1`: the GI50 in the assay on UACC-257 melanoma was > 100 µM; in the assay with NCI-H522 lung, 15.7 µM; in the assay on SW-620 colon, 20 µM; with T-47D breast, 21.4 µM; with DU-145 prostate, 85.6 µM; in the assay on HCC-2998 colon it was > 100 µM. For the same molecule, the GI50 in the assay on NCI-H460 lung was > 100 µM; in the assay with OVCAR-8 ovarian, 51.1 µM; in the assay on A498 renal, > 100 µM; in the assay on SNB-75 CNS, > 100 µM. The TGI in the assay with UACC-257 melanoma is > 100 µM; with NCI-H522 lung it was 32.8 µM; in the assay with SW-620 colon, 47.3 µM; in the assay with T-47D breast it was 50 µM; in the assay with DU-145 prostate it was > 100 µM; in the assay with HCC-2998 colon it was > 100 µM. Moreover, the TGI in the assay on NCI-H460 lung, with OVCAR-8 ovarian, with A498 renal and in the assay with SNB-75 CNS was > 100 µM in each case.
